The source of these data is ChEMBL document CHEMBL3352125, “Cytotoxic activity of substituted chalcones in terms of molecular electronic properties” (Bioorg Med Chem Lett, 2014).

Type in all cases: functional, cell-based
Assay [1] is described as follows: Cytotoxicity against human HL60 cells by MTT assay. The settings on record: HL-60.
Assay [2] in a line: Cytotoxicity against human NALM6 cells by MTT assay. The settings on record: NALM-6. Background: Tetrazolium assays rely on reduction of a dye to a coloured formazan, in cell work by metabolically active cells.
Assay [3] can be described thus: Cytotoxicity against human WM115 cells by MTT assay. The settings on record: WM-115.

The IC50 is the concentration at which inhibition is half-maximal. Low readings indicate inhibition by little substance, high ones a need for much substance. For the compound `O=C(/C=C/c1ccccc1)c1cc(O)ccc1O`, the IC50 amounted to 5.3 µM in assay [1], 5.5 µM in assay [2] and 61.3 µM in assay [3].
For the compound `O=C(/C=C/c1ccc(O)cc1)c1ccccc1O`, the IC50 turned out to be 7.1 µM in assay [1], 40.6 µM in assay [2] and 69.1 µM in assay [3].
The like results for `O=C(/C=C/c1ccccc1Cl)c1ccccc1O` were, in that order, 7.7 µM, 6.1 µM and 7.6 µM.
The corresponding values for `O=C(/C=C/c1ccc(Cl)cc1)c1ccccc1O` are 8.3 µM, 9.3 µM and 48.9 µM.
The corresponding values for `COc1ccc(/C=C/C(=O)c2ccccc2O)cc1` are 48.7 µM, 50.2 µM and 60.5 µM.
For `O=C(/C=C/c1ccc([N+](=O)[O-])cc1)c1ccccc1O`, the IC50 in assay [1] came to 5.8 µM; in assay [2], 6.9 µM; in assay [3], 27.6 µM.
In the case of `COc1cc(/C=C/C(=O)c2ccccc2O)cc(OC)c1OC`, the IC50 was found to be 39.3 µM in assay [1], 31.7 µM in assay [2] and 56.4 µM in assay [3].
The like results for `O=C(/C=C/c1ccc(Br)cc1)c1ccccc1O` were, in that order, 7.3 µM, 6.8 µM and 50 µM.
The like results for `O=C(/C=C/c1ccccc1)c1ccc(O)cc1O` [2',4'-DIHYDROXYCHALCONE] were, in that order, 6.3 µM, 18 µM and 42 µM.
As to `O=C(/C=C/c1ccccc1)c1ccccc1O` [2'-HYDROXYCHALCONE], the results for the IC50 in assay [1], in assay [2] and in assay [3] were 18 µM, 37.5 µM and 40.8 µM, respectively.
On to `O=C(/C=C/c1ccccc1)c1ccccc1` [CHALCONE], for which the concentration for half-maximal inhibition (IC50) in assay [1] came to 55.4 µM; in assay [2], 23.9 µM; in assay [3] it was 43.1 µM.
The like results for `O=C1CCOc2ccccc21` [CHROMANONE] were, in that order, 19.1 µM, 8.2 µM and 53.2 µM.
